Measured values published in ChEMBL document CHEMBL3217454, “Structureactivity relationship studies using peptide arrays: the example of HIV-1 Revintegrase interaction” (Medchemcomm, 2013).
Peptide text beside a SMILES is read from it.

What was measured:
[1] = test system: Human immunodeficiency virus 1; assay: Binding affinity to HLT-tagged HIV-1 Rev measured after overnight incubation by chemiluminescence analysis relative to IN 174-188; parameters: concentration or dose not given beside the values
[2] = molecular target: Human immunodeficiency virus type 1 integrase (Human immunodeficiency virus 1) (UniProt Q7ZJM1); assay: Binding affinity to HIV-1 integrase measured after overnight incubation by chemiluminescence analysis relative to IN 174-188; parameters: concentration or dose not given beside the values
Human immunodeficiency virus type 1 integrase (Human immunodeficiency virus 1), sequence (Q7ZJM1 as listed by the source): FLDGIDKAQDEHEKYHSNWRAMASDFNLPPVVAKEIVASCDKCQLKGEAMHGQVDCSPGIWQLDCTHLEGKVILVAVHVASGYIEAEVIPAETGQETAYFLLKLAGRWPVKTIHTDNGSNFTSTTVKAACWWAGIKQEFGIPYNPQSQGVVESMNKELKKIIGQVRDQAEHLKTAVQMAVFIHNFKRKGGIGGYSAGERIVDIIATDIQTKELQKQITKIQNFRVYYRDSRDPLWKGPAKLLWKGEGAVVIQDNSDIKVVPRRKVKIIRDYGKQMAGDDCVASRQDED

| SMILES | Activity [1] | Activity [2] |
| --- | --- | --- |
| CC[C@H](C)[C@H](NC(=O)[C@H](Cc1ccccc1)NC(=O)[C@@H](NC(=O)[C@H](C)NC(=O)[C@H](CCSC)NC(=O)[C@@H](N)CCC(N)=O)C(C)C)C(=O)N[C@@H](Cc1cnc[nH]1)C(=O)N[C@@H](CC(N)=O)C(=O)N[C@@H](Cc1ccccc1)C(=O)N[C@@H](CCCCN)C(=O)N[C@@H](CCCNC(=N)N)C(=O)N[C@@H](CCCCN)C(=O)O (H-QMAVFIHNFKRK-OH) | 135% | 122% |
| CC[C@H](C)[C@H](NC(=O)[C@H](Cc1ccccc1)NC(=O)[C@@H](NC(=O)[C@H](C)NC(=O)[C@H](CCSC)NC(=O)[C@H](CCC(N)=O)NC(=O)[C@H](C)NC(=O)[C@H](C)NC(=O)[C@@H](N)[C@@H](C)O)C(C)C)C(=O)N[C@@H](Cc1cnc[nH]1)C(=O)N[C@@H](CC(N)=O)C(=O)N[C@@H](Cc1ccccc1)C(=O)N[C@@H](CCCCN)C(=O)N[C@@H](CCCNC(=N)N)C(=O)N[C@@H](CCCCN)C(=O)O (H-TAAQMAVFIHNFKRK-OH) | 106% | 115% |
| CC[C@H](C)[C@H](NC(=O)[C@H](Cc1ccccc1)NC(=O)[C@@H](NC(=O)[C@H](C)NC(=O)[C@H](CCSC)NC(=O)[C@H](C)NC(=O)[C@@H](NC(=O)[C@H](C)NC(=O)[C@@H](N)[C@@H](C)O)C(C)C)C(C)C)C(=O)N[C@@H](Cc1cnc[nH]1)C(=O)N[C@@H](CC(N)=O)C(=O)N[C@@H](Cc1ccccc1)C(=O)N[C@@H](CCCCN)C(=O)N[C@@H](CCCNC(=N)N)C(=O)N[C@@H](CCCCN)C(=O)O (H-TAVAMAVFIHNFKRK-OH) | 79% | 83% |
| CC[C@H](C)[C@H](NC(=O)[C@H](Cc1ccccc1)NC(=O)[C@@H](NC(=O)[C@H](C)NC(=O)[C@H](C)NC(=O)[C@H](CCC(N)=O)NC(=O)[C@@H](NC(=O)[C@H](C)NC(=O)[C@@H](N)[C@@H](C)O)C(C)C)C(C)C)C(=O)N[C@@H](Cc1cnc[nH]1)C(=O)N[C@@H](CC(N)=O)C(=O)N[C@@H](Cc1ccccc1)C(=O)N[C@@H](CCCCN)C(=O)N[C@@H](CCCNC(=N)N)C(=O)N[C@@H](CCCCN)C(=O)O (H-TAVQAAVFIHNFKRK-OH) | 172% | 113% |
| CC[C@H](C)[C@H](NC(=O)[C@H](Cc1ccccc1)NC(=O)[C@H](C)NC(=O)[C@H](C)NC(=O)[C@H](CCSC)NC(=O)[C@H](CCC(N)=O)NC(=O)[C@@H](NC(=O)[C@H](C)NC(=O)[C@@H](N)[C@@H](C)O)C(C)C)C(=O)N[C@@H](Cc1cnc[nH]1)C(=O)N[C@@H](CC(N)=O)C(=O)N[C@@H](Cc1ccccc1)C(=O)N[C@@H](CCCCN)C(=O)N[C@@H](CCCNC(=N)N)C(=O)N[C@@H](CCCCN)C(=O)O (H-TAVQMAAFIHNFKRK-OH) | 222% | 123% |
| CC[C@H](C)[C@H](NC(=O)[C@H](C)NC(=O)[C@@H](NC(=O)[C@H](C)NC(=O)[C@H](CCSC)NC(=O)[C@H](CCC(N)=O)NC(=O)[C@@H](NC(=O)[C@H](C)NC(=O)[C@@H](N)[C@@H](C)O)C(C)C)C(C)C)C(=O)N[C@@H](Cc1cnc[nH]1)C(=O)N[C@@H](CC(N)=O)C(=O)N[C@@H](Cc1ccccc1)C(=O)N[C@@H](CCCCN)C(=O)N[C@@H](CCCNC(=N)N)C(=O)N[C@@H](CCCCN)C(=O)O (H-TAVQMAVAIHNFKRK-OH) | 216% | 104% |
| CSCC[C@H](NC(=O)[C@H](CCC(N)=O)NC(=O)[C@@H](NC(=O)[C@H](C)NC(=O)[C@@H](N)[C@@H](C)O)C(C)C)C(=O)N[C@@H](C)C(=O)N[C@H](C(=O)N[C@@H](Cc1ccccc1)C(=O)O)C(C)C (H-TAVQMAVF-OH) | 0% | 0% |
| CSCC[C@H](NC(=O)[C@H](CCC(N)=O)NC(=O)[C@@H](NC(=O)[C@H](C)NC(=O)[C@@H](N)[C@@H](C)O)C(C)C)C(=O)N[C@@H](C)C(=O)N[C@H](C(=O)N[C@@H](Cc1ccccc1)C(=O)N[C@@H](C)C(=O)N[C@@H](Cc1cnc[nH]1)C(=O)N[C@@H](CC(N)=O)C(=O)N[C@@H](Cc1ccccc1)C(=O)N[C@@H](CCCCN)C(=O)N[C@@H](CCCNC(=N)N)C(=O)N[C@@H](CCCCN)C(=O)O)C(C)C (H-TAVQMAVFAHNFKRK-OH) | 254% | 156% |
| CC[C@H](C)[C@H](NC(=O)[C@H](Cc1ccccc1)NC(=O)[C@@H](NC(=O)[C@H](C)NC(=O)[C@H](CCSC)NC(=O)[C@H](CCC(N)=O)NC(=O)[C@@H](NC(=O)[C@H](C)NC(=O)[C@@H](N)[C@@H](C)O)C(C)C)C(C)C)C(=O)O (H-TAVQMAVFI-OH) | 0% | 0% |
| CC[C@H](C)[C@H](NC(=O)[C@H](Cc1ccccc1)NC(=O)[C@@H](NC(=O)[C@H](C)NC(=O)[C@H](CCSC)NC(=O)[C@H](CCC(N)=O)NC(=O)[C@@H](NC(=O)[C@H](C)NC(=O)[C@@H](N)[C@@H](C)O)C(C)C)C(C)C)C(=O)N[C@@H](C)C(=O)N[C@@H](CC(N)=O)C(=O)N[C@@H](Cc1ccccc1)C(=O)N[C@@H](CCCCN)C(=O)N[C@@H](CCCNC(=N)N)C(=O)N[C@@H](CCCCN)C(=O)O (H-TAVQMAVFIANFKRK-OH) | 121% | 122% |
| CC[C@H](C)[C@H](NC(=O)[C@H](Cc1ccccc1)NC(=O)[C@@H](NC(=O)[C@H](C)NC(=O)[C@H](CCSC)NC(=O)[C@H](CCC(N)=O)NC(=O)[C@@H](NC(=O)[C@H](C)NC(=O)[C@@H](N)[C@@H](C)O)C(C)C)C(C)C)C(=O)N[C@@H](Cc1cnc[nH]1)C(=O)O (H-TAVQMAVFIH-OH) | 0% | 0% |
| CC[C@H](C)[C@H](NC(=O)[C@H](Cc1ccccc1)NC(=O)[C@@H](NC(=O)[C@H](C)NC(=O)[C@H](CCSC)NC(=O)[C@H](CCC(N)=O)NC(=O)[C@@H](NC(=O)[C@H](C)NC(=O)[C@@H](N)[C@@H](C)O)C(C)C)C(C)C)C(=O)N[C@@H](Cc1cnc[nH]1)C(=O)N[C@@H](C)C(=O)N[C@@H](Cc1ccccc1)C(=O)N[C@@H](CCCCN)C(=O)N[C@@H](CCCNC(=N)N)C(=O)N[C@@H](CCCCN)C(=O)O (H-TAVQMAVFIHAFKRK-OH) | 105% | 33% |
| CC[C@H](C)[C@H](NC(=O)[C@H](Cc1ccccc1)NC(=O)[C@@H](NC(=O)[C@H](C)NC(=O)[C@H](CCSC)NC(=O)[C@H](CCC(N)=O)NC(=O)[C@@H](NC(=O)[C@H](C)NC(=O)[C@@H](N)[C@@H](C)O)C(C)C)C(C)C)C(=O)N[C@@H](Cc1cnc[nH]1)C(=O)N[C@@H](CC(N)=O)C(=O)O (H-TAVQMAVFIHN-OH) | 0% | 0% |
| CC[C@H](C)[C@H](NC(=O)[C@H](Cc1ccccc1)NC(=O)[C@@H](NC(=O)[C@H](C)NC(=O)[C@H](CCSC)NC(=O)[C@H](CCC(N)=O)NC(=O)[C@@H](NC(=O)[C@H](C)NC(=O)[C@@H](N)[C@@H](C)O)C(C)C)C(C)C)C(=O)N[C@@H](Cc1cnc[nH]1)C(=O)N[C@@H](CC(N)=O)C(=O)N[C@@H](C)C(=O)N[C@@H](CCCCN)C(=O)N[C@@H](CCCNC(=N)N)C(=O)N[C@@H](CCCCN)C(=O)O (H-TAVQMAVFIHNAKRK-OH) | 193% | 134% |
| CC[C@H](C)[C@H](NC(=O)[C@H](Cc1ccccc1)NC(=O)[C@@H](NC(=O)[C@H](C)NC(=O)[C@H](CCSC)NC(=O)[C@H](CCC(N)=O)NC(=O)[C@@H](NC(=O)[C@H](C)NC(=O)[C@@H](N)[C@@H](C)O)C(C)C)C(C)C)C(=O)N[C@@H](Cc1cnc[nH]1)C(=O)N[C@@H](CC(N)=O)C(=O)N[C@@H](Cc1ccccc1)C(=O)O (H-TAVQMAVFIHNF-OH) | 0% | 0% |
